Species: Rattus norvegicus
Experiment: Open TG-GATES - Regimen: Single
Format: toxicity, organism-based, Sprague-Dawley
Design: regimen Single, gender Male, age 6 weeks
Conditions: in vivo, po, route gavage; for APTT / Bas / Eos / Fbg / Hb / Ht / Lym / MCH / MCHC / MCV / Mono / Neu / PT / Plat / RBC / Ret / WBC: tissue Blood; for ALP / ALT / AST / BUN / CRE / DBIL / GLC / IP / K / Na / PL / RALB / TBIL / TC / TG / TP / gamma-GTP: tissue Plasma
[1] = 100 mg/kg, 3 h, dose level Middle
[2] = 100 mg/kg, 6 h, dose level Middle
[3] = 100 mg/kg, 9 h, dose level Middle
[4] = 100 mg/kg, 24 h, dose level Middle
[5] = 300 mg/kg, 3 h, dose level High
[6] = 300 mg/kg, 6 h, dose level High
[7] = 300 mg/kg, 9 h, dose level High
[8] = 300 mg/kg, 24 h, dose level High

## NS(=O)(=O)c1cc(C(=O)O)c(NCc2ccco2)cc1Cl [FUROSEMIDE]
[1]
  TERMINAL_BW: 199.5 g
  APTT: 18.8 s
  Bas: 0%
  Eos: 1%
  Fbg: 324.8 mg/dL
  Hb: 14.3 g/dL
  Ht: 42.5%
  Lym: 70.8%
  MCH: 21.4 pg
  MCHC: 33.7%
  MCV: 63.3 fL
  Mono: 5.4%
  Neu: 22%
  PT: 14.9 s
  Plat: 121.3 x10_4/uL
  RBC: 670.4 x10_4/ul
  Ret: 7.9%
  WBC: 73.3 x10_2/uL
  ALP: 1574.2 IU/L
  ALT: 43.6 IU/L
  AST: 77.6 IU/L
  BUN: 19.8 mg/dL
  CRE: 0.3 mg/dL
  DBIL: 0.01 mg/dL
  GLC: 182.2 mg/dL
  IP: 11.3 mg/dL
  K: 3.6 meq/L
  Na: 140.8 meq/L
  PL: 161.6 mg/dL
  RALB: 3 g/dL
  TBIL: 0.064 mg/dL
  TC: 88 mg/dL
  TG: 64.2 mg/dL
  TP: 6.4 g/dL
  gamma-GTP: 1 IU/L
[2]
  TERMINAL_BW: 195.4 g
  APTT: 17.3 s
  Bas: 0%
  Eos: 1%
  Fbg: 323.2 mg/dL
  Hb: 14.7 g/dL
  Ht: 43.3%
  Lym: 64.8%
  MCH: 20.8 pg
  MCHC: 33.8%
  MCV: 61.7 fL
  Mono: 4.2%
  Neu: 29.6%
  PT: 14.9 s
  Plat: 125.9 x10_4/uL
  RBC: 703.4 x10_4/ul
  Ret: 7.7%
  WBC: 73.2 x10_2/uL
  ALP: 1685 IU/L
  ALT: 42.6 IU/L
  AST: 84.6 IU/L
  BUN: 21.8 mg/dL
  CRE: 0.2 mg/dL
  DBIL: 0.012 mg/dL
  GLC: 192.6 mg/dL
  IP: 10.4 mg/dL
  K: 3.5 meq/L
  Na: 141.2 meq/L
  PL: 162.8 mg/dL
  RALB: 3 g/dL
  TBIL: 0.068 mg/dL
  TC: 83.6 mg/dL
  TG: 71.8 mg/dL
  TP: 6.4 g/dL
  gamma-GTP: 1 IU/L
[3]
  TERMINAL_BW: 193.8 g
  APTT: 18 s
  Bas: 0%
  Eos: 0.8%
  Fbg: 334.8 mg/dL
  Hb: 14.6 g/dL
  Ht: 42.6%
  Lym: 68.6%
  MCH: 20.8 pg
  MCHC: 34.1%
  MCV: 61.1 fL
  Mono: 3.2%
  Neu: 26.8%
  PT: 15 s
  Plat: 133.5 x10_4/uL
  RBC: 697.8 x10_4/ul
  Ret: 7.4%
  WBC: 72.2 x10_2/uL
  ALP: 1341.8 IU/L
  ALT: 36.2 IU/L
  AST: 74.6 IU/L
  BUN: 20.2 mg/dL
  CRE: 0.2 mg/dL
  DBIL: 0.01 mg/dL
  GLC: 173.8 mg/dL
  IP: 11.1 mg/dL
  K: 3.6 meq/L
  Na: 141.4 meq/L
  PL: 149.6 mg/dL
  RALB: 3 g/dL
  TBIL: 0.072 mg/dL
  TC: 88.6 mg/dL
  TG: 36.2 mg/dL
  TP: 6.3 g/dL
  gamma-GTP: 0.8 IU/L
[4]
  TERMINAL_BW: 215 g
  APTT: 17.7 s
  Bas: 0%
  Eos: 0.8%
  Fbg: 286.8 mg/dL
  Hb: 13.3 g/dL
  Ht: 39.6%
  Lym: 80.4%
  MCH: 21.9 pg
  MCHC: 33.7%
  MCV: 64.9 fL
  Mono: 2.4%
  Neu: 15%
  PT: 15.7 s
  Plat: 102.2 x10_4/uL
  RBC: 610.4 x10_4/ul
  Ret: 7%
  WBC: 102.9 x10_2/uL
  ALP: 1380 IU/L
  ALT: 42.4 IU/L
  AST: 68.2 IU/L
  BUN: 19.4 mg/dL
  CRE: 0.2 mg/dL
  DBIL: 0.008 mg/dL
  GLC: 189.4 mg/dL
  IP: 8 mg/dL
  K: 3.7 meq/L
  Na: 141.6 meq/L
  PL: 155.2 mg/dL
  RALB: 2.6 g/dL
  TBIL: 0.054 mg/dL
  TC: 81.4 mg/dL
  TG: 56 mg/dL
  TP: 5.7 g/dL
  gamma-GTP: 0.2 IU/L
[5]
  TERMINAL_BW: 199.2 g
  APTT: 18.3 s
  Bas: 0%
  Eos: 1%
  Fbg: 357 mg/dL
  Hb: 14.8 g/dL
  Ht: 43.9%
  Lym: 66.6%
  MCH: 21.4 pg
  MCHC: 33.7%
  MCV: 63.6 fL
  Mono: 4.6%
  Neu: 26.4%
  PT: 14.8 s
  Plat: 119.6 x10_4/uL
  RBC: 690.4 x10_4/ul
  Ret: 8.3%
  WBC: 67.2 x10_2/uL
  ALP: 1694 IU/L
  ALT: 47.2 IU/L
  AST: 78.4 IU/L
  BUN: 19.4 mg/dL
  CRE: 0.3 mg/dL
  DBIL: 0.01 mg/dL
  GLC: 193.8 mg/dL
  IP: 12.8 mg/dL
  K: 3.4 meq/L
  Na: 140 meq/L
  PL: 168.2 mg/dL
  RALB: 3.2 g/dL
  TBIL: 0.062 mg/dL
  TC: 91.6 mg/dL
  TG: 69 mg/dL
  TP: 6.9 g/dL
  gamma-GTP: 0.8 IU/L
[6]
  TERMINAL_BW: 194.8 g
  APTT: 20.9 s
  Bas: 0%
  Eos: 1%
  Fbg: 381.6 mg/dL
  Hb: 15.3 g/dL
  Ht: 45.3%
  Lym: 62.6%
  MCH: 21.4 pg
  MCHC: 33.8%
  MCV: 63.5 fL
  Mono: 4%
  Neu: 31.8%
  PT: 14.4 s
  Plat: 126.6 x10_4/uL
  RBC: 715 x10_4/ul
  Ret: 7.7%
  WBC: 72.7 x10_2/uL
  ALP: 1419.8 IU/L
  ALT: 39.2 IU/L
  AST: 77.2 IU/L
  BUN: 24.4 mg/dL
  CRE: 0.3 mg/dL
  DBIL: 0.008 mg/dL
  GLC: 190.6 mg/dL
  IP: 11.4 mg/dL
  K: 3.5 meq/L
  Na: 140 meq/L
  PL: 190 mg/dL
  RALB: 3.2 g/dL
  TBIL: 0.068 mg/dL
  TC: 111.4 mg/dL
  TG: 64.2 mg/dL
  TP: 6.9 g/dL
  gamma-GTP: 0.6 IU/L
[7]
  TERMINAL_BW: 192 g
  APTT: 19.5 s
  Bas: 0%
  Eos: 0.8%
  Fbg: 382.4 mg/dL
  Hb: 15.3 g/dL
  Ht: 44.8%
  Lym: 66.4%
  MCH: 21.3 pg
  MCHC: 34.1%
  MCV: 62.5 fL
  Mono: 3.4%
  Neu: 28.4%
  PT: 14.4 s
  Plat: 117.9 x10_4/uL
  RBC: 716 x10_4/ul
  Ret: 7.8%
  WBC: 73.1 x10_2/uL
  ALP: 1461.8 IU/L
  ALT: 38 IU/L
  AST: 71.6 IU/L
  BUN: 25.2 mg/dL
  CRE: 0.2 mg/dL
  DBIL: 0.012 mg/dL
  GLC: 186.8 mg/dL
  IP: 10.9 mg/dL
  K: 3.3 meq/L
  Na: 141.6 meq/L
  PL: 176.8 mg/dL
  RALB: 3.2 g/dL
  TBIL: 0.078 mg/dL
  TC: 102 mg/dL
  TG: 33.6 mg/dL
  TP: 6.8 g/dL
  gamma-GTP: 1 IU/L
[8]
  TERMINAL_BW: 195.5 g
  APTT: 16.8 s
  Bas: 0.2%
  Eos: 1%
  Fbg: 386.6 mg/dL
  Hb: 14.5 g/dL
  Ht: 41.9%
  Lym: 74%
  MCH: 21.2 pg
  MCHC: 34.5%
  MCV: 61.3 fL
  Mono: 3.4%
  Neu: 20.4%
  PT: 15.2 s
  Plat: 117.8 x10_4/uL
  RBC: 683.8 x10_4/ul
  Ret: 6.7%
  WBC: 95.6 x10_2/uL
  ALP: 1470.8 IU/L
  ALT: 44.4 IU/L
  AST: 72.8 IU/L
  BUN: 36.2 mg/dL
  CRE: 0.3 mg/dL
  DBIL: 0.014 mg/dL
  GLC: 178.4 mg/dL
  IP: 7.8 mg/dL
  K: 3.3 meq/L
  Na: 138.2 meq/L
  PL: 159.2 mg/dL
  RALB: 3 g/dL
  TBIL: 0.064 mg/dL
  TC: 93.2 mg/dL
  TG: 43 mg/dL
  TP: 6.4 g/dL
  gamma-GTP: 0.8 IU/L

— ChEMBL document CHEMBL3885861, “Open TG-GATES”
